Results from patent publication US12295973B2 (Fred Hutchinson Cancer Center, priority 2017, dated 2025).
Where a SMILES comes first, the peptide text is derived from it. [ ]: non-standard residue; d: D form. The star is where a group is joined. dPhe(4-NHCONH2) = NC(=O)Nc1ccc(C[C@@H](N)C(=O)O)cc1; Dihydroorotyl(S) = O=C1C[C@@H](C(=O)*)NC(=O)N1; dPhe(4-Cl) = N[C@H](Cc1ccc(Cl)cc1)C(=O)O; Phe(4-NH2) = Nc1ccc(C[C@H](N)C(=O)O)cc1; d2Nal = N[C@H](Cc1ccc2ccccc2c1)C(=O)O; Lys(iPr) = CC(C)NCCCC[C@H](N)C(=O)O; d3Pal = N[C@H](Cc1cccnc1)C(=O)O

How the values were obtained:
Format in all cases: in vivo, mouse
mice exposed to L-TBI = assay: Complete blood counts (peripheral blood recovery) after L-TBI; details: vs vehicle
Source text: Description. Inhibition of sex steroids, which can be achieved in a reversible fashion pharmacologically, is a well-described strategy to promote lymphopoiesis in the BM and thymus^8,7,14,15. Although the most common method of sex steroid ablation clinically has been to use LHRH-agonists, it was described that an LHRH-Antagonist represents a more rational approach to promote immediate ablation of sex steroids for immune regeneration as it is far more rapid and abrogates the initial surge in sex steroids that LHRH-Agonist cause^16. Taken together with the impact of sex steroid inhibition on HSC function and the rapid regenerative effects of LHRH-Ant, it was hypothesized that LHRH-Ant could represent a rational non-cellular medical countermeasure for mitigating radiation injury and promoting hematopoietic regeneration when administered after hematopoietic insult. To test this hypothesis, a lethal TBI (L-TBI) dose of 840cGy that mediated lethality in more than 90% of mice (FIG. 1A) was used. […] Mouse lethality was a result of bone marrow failure, since transplant of BM Lin-Sca1^+tkit^+ (LSK) cells 3 days after L-TBI completely rescued all mice (FIG. 1B). […] It was then tested if LHRH-Ant could mediate even greater mouse survival when administered multiple times.
Methods. […] To assess mouse survival after radiation, mice were monitored for up to 60 days after TBI. […]

functional HSCs = assay: Adapted competitive repopulation functional assay (BM and spleen cells of treated L-TBI mice transplanted into irradiated hosts); details: cells collected day 14 after L-TBI; vs recipients of cells from vehicle-treated mice
Description: To investigate the specific regenerative effects mediated by LHRH-Ant treatment on the hematopoietic stem and progenitor cell (HSPC) compartment, BM were analyzed at several time points after L-TBI. […] To determine hematopoietic functional potential, colony-forming unit activity was next quantified to determine the effects of LHRH-Ant on the recovery of committed hematopoietic progenitor cells. […] Consistent with these functional findings, on day 14 after L-TBI, expansion of LSKs as well as their downstream progenitors in mice given LHRH-Ant were found (FIGS. 2F, 2G). […] However, given the changes in HSC phenotype after radiation, the standard competitive repopulation functional assay was adapted to evaluate the presence and relative quantity of functional HSCs after L-TBI. Specifically, all cells from the BM and spleen (to account for potential changes to circulating HSCs) were collected and transplanted from vehicle or LHRH-Ant treated mice at day 14 after L-TBI into irradiated hosts (along with a rescue dose of congenic WBM cells to ensure survival). […]
Bone marrow transplant: In the competitive BM transplant, whole BM from CD45.2+ (vehicle or LHRH-Ant) donors and were collected and transplanted into lethally irradiated CD45.1+ mice (1100 cGy TBI, split dose) along with 2.5×10^5 CD45.1+ competitors, through tail vein injection. Donor chimerism was monitored monthly after transplant. […]

LT-HSCs = assay: Cell cycle status of HSCs (Ki-67/DAPI) after L-TBI; details: vs vehicle
Source text: The control of HSC self-renewal, differentiation, and proliferation is a tightly regulated process crucial for maintaining the HSC pool^29-34. This is particularly relevant during hematopoietic injuries (such as high dose or repeated rounds of chemotherapy or irradiation) when dormant HSCs transiently start to proliferate to replenish blood cells as unbalanced HSC proliferation can lead to stem cell exhaustion and long-term myelosuppression^35-37. […] Although there is a clear need for HSC proliferation to ensure regenerative hematopoiesis, previous reports have also shown that induction of HSC quiescence after high-dose irradiation correlates with increased hematopoietic recovery and enhanced mouse survival^35,37,41.
Flow cytometry and cell cycle analysis: Monoclonal antibodies recognizing the following markers were used for flow cytometric analyses and cell sorting of murine cells (LSR II or FACSAria III, BD Biosciences): (from BD Pharmingen) c-kit (2B8), Sca-1 (D7), CD11b (M1/70), CD11c (HL3), CD19 (ID3), CD3ϵ (145-2C11), CD34 (RAM34), CD45 (30-F11), CD45.1 (A20), CD45.2 (104), CD48 (HM48-1), CD62L (MEL-14), CD135 (A2F10.1), Gr-1 (RB6-8C5), NK1.1 (PK136), TER-119 (TER-119); (from eBioscience) CD127 (A7R34), CD150 (mShad150); (from Invitrogen) B220 (RA3-6B2) and streptavidin (N/A). […]

SMILES: CC(=O)N[C@H](Cc1ccc2ccccc2c1)C(=O)N[C@H](Cc1ccc(Cl)cc1)C(=O)N[C@H](Cc1cccnc1)C(=O)N[C@@H](CO)C(=O)N[C@@H](Cc1ccc(NC(=O)[C@@H]2CC(=O)NC(=O)N2)cc1)C(=O)N[C@H](Cc1ccc(NC(N)=O)cc1)C(=O)N[C@@H](CC(C)C)C(=O)N[C@@H](CCCCNC(C)C)C(=O)N1CCC[C@H]1C(=O)N[C@H](C)C(N)=O [LHRH-Ant, Degarelix] (Ac-[d2Nal][dPhe(4-Cl)][d3Pal]S[Phe(4-NH2)](Dihydroorotyl(S))[dPhe(4-NHCONH2)]L[Lys(iPr)]P[dA]-NH2)
- complete blood counts recovery after L-TBI (mice exposed to L-TBI): recovered after L-TBI
- hematopoietic reconstitution of host mice (functional HSCs): significantly better hematopoietic reconstitution
- proliferative HSCs (LT-HSCs): fewer proliferative HSCs
- proportion of Ki-67− quiescent LT-HSCs (LT-HSCs): significantly higher proportion
